According to BindingDB's records for doi:10.1016/j.bmcl.2004.01.072 (Array Biopharma, 2004):

Experiment: Inhibition of MDC-stimulated chemotaxis in transfected murine cell line expressing human chemokine receptor 4

Row | EC50 [nM] | Compound
1 | 600 | C[C@@H](NC(=O)C[C@H]1S[C@H](c2ccc(Cl)cc2Cl)N(CC(=O)NCCCN2CCCCC2)C1=O)c1cccc2ccccc12 [2-{(2R,5R)-2-(2,4-Dichloro-phenyl)-5-[((R)-1-naphthalen-1-yl-ethylcarbamoyl)-methyl]-4-oxo-thiazolidin-3-yl}-N-(3-piperidin-1-yl-propyl)-acetamide]
2 | 2000 | Cc1c(Cl)cccc1CNC(=O)C[C@H]1S[C@H](c2ccc(Cl)cc2Cl)N(CC(=O)NCCCN2CCCCC2)C1=O [2-[(2R,5R)-5-[(3-Chloro-2-methyl-benzylcarbamoyl)-methyl]-2-(2,4-dichloro-phenyl)-4-oxo-thiazolidin-3-yl]-N-(3-piperidin-1-yl-propyl)-acetamide]
